Source: PMC6308944, “Anti-Candida albicans Activity of Thiazolylhydrazone Derivatives in Invertebrate and Murine Models” (Journal of Fungi, 2018)
In brackets after ≈: the same amount, converted by molar mass.

How the values were obtained:
C. neoformans (H99) = test: MIC, broth microdilution (CLSI M27-A3), reference isolate; conditions: Cryptococcus neoformans
C. dublinensis (MYA-646) = test: as above; conditions: Candida dubliniensis
[1] = system: C. tropicalis (ATCC13803); test: as above; conditions: Candida tropicalis
[2] = system: Cryptococcus neoformans clinical isolates; test: MIC, broth microdilution, clinical isolates
[3] = system: C. parapsilosis (ATCC22019); test: MIC, broth microdilution (CLSI M27-A3), reference isolate; conditions: Lodderomyces parapsilosis
[4] = system: Candida albicans clinical isolates; test: MIC, broth microdilution, clinical isolates
C. albicans (DAY-185) = test: MIC, broth microdilution (CLSI M27-A3), reference isolate; conditions: Candida albicans, 48 h
C. albicans (CAN14) = test: as above; conditions: Candida albicans
[5] = system: Candida parapsilosis isolates; test: MIC, broth microdilution, clinical isolates
C. glabrata (ATCC90030) = test: MIC, broth microdilution (CLSI M27-A3), reference isolate; conditions: Nakaseomyces glabratus
[6] = system: Candida glabrata clinical isolates; test: MIC, broth microdilution, clinical isolates
C. krusei (ATCC6258) = test: MIC, broth microdilution (CLSI M27-A3), reference isolate; conditions: Pichia kudriavzevii

For `C[C@@H]1[C@H](O)[C@@H](C)/C=C/C=C/C=C/C=C/C=C/C=C/C=C/[C@H](O[C@@H]2O[C@H](C)[C@@H](O)[C@H](N)[C@@H]2O)C[C@@H]2O[C@](O)(C[C@@H](O)C[C@@H](O)[C@H](O)CC[C@@H](O)C[C@@H](O)CC(=O)O[C@H]1C)C[C@H](O)[C@H]2C(=O)O` [Amphotericin B], the MIC (C. neoformans (H99)) was 4 µg/mL (≈ 4.33 µM), the MIC (C. dublinensis (MYA-646)) was 1 µg/mL (≈ 1.08 µM) and the MIC [1] was 4 µg/mL (≈ 4.33 µM). The MIC50 [2] was 0.125 µg/mL (≈ 0.135 µM), the MIC90 [2] was 0.25 µg/mL (≈ 0.271 µM) and the MIC ([2]; C. neoformans clinical isolate 27JF) was 0.25 µg/mL (≈ 0.271 µM). For the same molecule, the MIC ([2]; C. neoformans clinical isolate 28JF) was 0.125 µg/mL (≈ 0.135 µM), the MIC ([2]; C. neoformans clinical isolate 93) was 0.25 µg/mL (≈ 0.271 µM) and the MIC ([2]; C. neoformans clinical isolate 94) was 0.25 µg/mL (≈ 0.271 µM). For the same molecule, the MIC ([2]; C. neoformans clinical isolate 646B) was 0.125 µg/mL (≈ 0.135 µM), the MIC ([2]; C. neoformans clinical isolate 975) was 0.125 µg/mL (≈ 0.135 µM) and the MIC ([2]; C. neoformans clinical isolate 9220) was 0.125 µg/mL (≈ 0.135 µM). The MIC ([2]; C. neoformans clinical isolate 9273) was 0.125 µg/mL (≈ 0.135 µM), the MIC ([2]; C. neoformans clinical isolate 10131) was 0.125 µg/mL (≈ 0.135 µM) and the MIC ([2]; C. neoformans clinical isolate 10211) was 0.125 µg/mL (≈ 0.135 µM). For the same molecule, the MIC ([2]; C. neoformans clinical isolate 10264) was 0.125 µg/mL (≈ 0.135 µM), the MIC ([2]; C. neoformans clinical isolate 10335) was 0.125 µg/mL (≈ 0.135 µM) and the MIC ([2]; C. neoformans clinical isolate 10379) was 0.125 µg/mL (≈ 0.135 µM). It also gave an MIC ([2]; C. neoformans clinical isolate 41292) of 0.125 µg/mL (≈ 0.135 µM), an MIC ([2]; C. neoformans clinical isolate 41295) of 0.125 µg/mL (≈ 0.135 µM) and an MIC ([2]; C. neoformans clinical isolate 41296) of 1 µg/mL (≈ 1.08 µM). For the same molecule, the MIC ([2]; C. neoformans clinical isolate 41297) was 0.125 µg/mL (≈ 0.135 µM), the MIC ([2]; C. neoformans clinical isolate 41298) was 0.125 µg/mL (≈ 0.135 µM) and the MIC ([2]; C. neoformans clinical isolate 41299) was 0.125 µg/mL (≈ 0.135 µM). The MIC ([2]; C. neoformans clinical isolate 90896) was 0.125 µg/mL (≈ 0.135 µM), the MIC ([2]; C. neoformans clinical isolate 92868) was 0.25 µg/mL (≈ 0.271 µM) and the MIC ([2]; C. neoformans clinical isolate BF113) was 1 µg/mL (≈ 1.08 µM). For the same molecule, the MIC ([2]; C. neoformans clinical isolate BF114) was less than 0.0625 µg/mL, the MIC ([2]; C. neoformans clinical isolate C31) was 0.125 µg/mL (≈ 0.135 µM) and the MIC ([2]; C. neoformans clinical isolate F10) was 0.25 µg/mL (≈ 0.271 µM). The MIC ([2]; C. neoformans clinical isolate RN01) was 0.125 µg/mL (≈ 0.135 µM), the MIC ([2]; C. neoformans clinical isolate WP) was 1 µg/mL (≈ 1.08 µM) and the MIC [3] was 2 µg/mL (≈ 2.16 µM). The MIC50 ([4]; Candida albicans) was 0.25 µg/mL (≈ 0.271 µM), the MIC90 ([4]; Candida albicans) was 0.25 µg/mL (≈ 0.271 µM) and the MIC ([4]; Candida albicans, C. albicans clinical isolate 1) was 0.25 µg/mL (≈ 0.271 µM). The MIC ([4]; Candida albicans, C. albicans clinical isolate 02A) was 0.25 µg/mL (≈ 0.271 µM), the MIC ([4]; Candida albicans, C. albicans clinical isolate 02B) was 0.25 µg/mL (≈ 0.271 µM) and the MIC ([4]; Candida albicans, C. albicans clinical isolate 6) was 0.5 µg/mL (≈ 0.541 µM). For the same molecule, the MIC ([4]; Candida albicans, C. albicans clinical isolate 7) was 0.125 µg/mL (≈ 0.135 µM), the MIC ([4]; Candida albicans, C. albicans clinical isolate 9) was 0.25 µg/mL (≈ 0.271 µM) and the MIC ([4]; Candida albicans, C. albicans clinical isolate 10) was 0.25 µg/mL (≈ 0.271 µM). The MIC ([4]; Candida albicans, C. albicans clinical isolate 11) was 0.125 µg/mL (≈ 0.135 µM), the MIC ([4]; Candida albicans, C. albicans clinical isolate 13) was 0.125 µg/mL (≈ 0.135 µM) and the “MIC90” value ([4]; nine C. albicans clinical isolates) was 0.25 µg/mL (≈ 0.271 µM). The MIC (C. albicans (DAY-185)) was 1 µg/mL (≈ 1.08 µM), the MIC (C. albicans (CAN14)) was 1 µg/mL (≈ 1.08 µM) and the “MIC90” value ([5]; C. parapsilosis isolates) was 0.5 µg/mL (≈ 0.541 µM). It also gave an MIC50 ([5]; Lodderomyces parapsilosis) of 0.25 µg/mL (≈ 0.271 µM), an MIC90 ([5]; Lodderomyces parapsilosis) of 0.5 µg/mL (≈ 0.541 µM) and an MIC ([5]; Lodderomyces parapsilosis, C. parapsilosis isolate 6901) of 0.5 µg/mL (≈ 0.541 µM). The MIC ([5]; Lodderomyces parapsilosis, C. parapsilosis isolate 6917) was 0.25 µg/mL (≈ 0.271 µM), the MIC ([5]; Lodderomyces parapsilosis, C. parapsilosis isolate 6933) was 0.5 µg/mL (≈ 0.541 µM) and the MIC ([5]; Lodderomyces parapsilosis, C. parapsilosis isolate 7449) was 0.5 µg/mL (≈ 0.541 µM). It also gave an MIC ([5]; Lodderomyces parapsilosis, C. parapsilosis isolate 7585) of 0.25 µg/mL (≈ 0.271 µM), an MIC ([5]; Lodderomyces parapsilosis, C. parapsilosis isolate 7652) of 0.25 µg/mL (≈ 0.271 µM) and an MIC ([5]; Lodderomyces parapsilosis, C. parapsilosis isolate 7839) of 0.5 µg/mL (≈ 0.541 µM). For the same molecule, the MIC ([5]; Lodderomyces parapsilosis, C. parapsilosis isolate 7970A) was 0.25 µg/mL (≈ 0.271 µM), the MIC ([5]; Lodderomyces parapsilosis, C. parapsilosis isolate 8044) was 0.5 µg/mL (≈ 0.541 µM) and the MIC ([5]; Lodderomyces parapsilosis, C. parapsilosis isolate 8662) was 0.25 µg/mL (≈ 0.271 µM). The MIC (C. glabrata (ATCC90030)) was 2 µg/mL (≈ 2.16 µM), the MIC50 ([6]; Nakaseomyces glabratus) was 0.5 µg/mL (≈ 0.541 µM) and the MIC90 ([6]; Nakaseomyces glabratus) was 1 µg/mL (≈ 1.08 µM). It also gave an MIC ([6]; Nakaseomyces glabratus, C. glabrata clinical isolate 6922) of 0.5 µg/mL (≈ 0.541 µM), an MIC ([6]; Nakaseomyces glabratus, C. glabrata clinical isolate 6927) of 1 µg/mL (≈ 1.08 µM) and an MIC ([6]; Nakaseomyces glabratus, C. glabrata clinical isolate 6931) of 0.5 µg/mL (≈ 0.541 µM). It also gave an MIC ([6]; Nakaseomyces glabratus, C. glabrata clinical isolate 6932) of 0.5 µg/mL (≈ 0.541 µM), an MIC ([6]; Nakaseomyces glabratus, C. glabrata clinical isolate 6943) of 1 µg/mL (≈ 1.08 µM) and an MIC ([6]; Nakaseomyces glabratus, C. glabrata clinical isolate 7110) of 0.5 µg/mL (≈ 0.541 µM). It also gave an MIC ([6]; Nakaseomyces glabratus, C. glabrata clinical isolate 7221) of 0.5 µg/mL (≈ 0.541 µM), an MIC ([6]; Nakaseomyces glabratus, C. glabrata clinical isolate 7255) of 1 µg/mL (≈ 1.08 µM) and an MIC ([6]; Nakaseomyces glabratus, C. glabrata clinical isolate 7815) of 0.5 µg/mL (≈ 0.541 µM). The MIC ([6]; Nakaseomyces glabratus, C. glabrata clinical isolate 7871) was 1 µg/mL (≈ 1.08 µM), the “susceptibility of isolates according to CLSI M27-S4” value ([6]; all C. glabrata clinical isolates) was “sensitive” and the MIC (C. krusei (ATCC6258)) was 8 µg/mL (≈ 8.66 µM).
